Results: PMC9737981, “Molecular Hybridization Strategy on the Design, Synthesis, and Structural Characterization of Ferrocene-N-acyl Hydrazones as Immunomodulatory Agents” (Molecules, 2022)

Legend:
nitric oxide production = experiment: Inhibition of nitric oxide (nitrite) production in J774 macrophages stimulated with LPS + IFN-γ (Griess); type: cell-based; settings: for Inhibition of NO (%) Production at 40 μM: 24 h incubation with compounds and LPS plus IFN-γ
Method: (§1) Immortalized J774 macrophages (2 × 10^5 cells/well) or peritoneal macrophages (2 × 10^5 cells/well) were incubated in 96-well plates in a DMEM medium supplemented with 10% FBS and 50 µg/mL of gentamicin, in triplicate, stimulated or not with LPS (500 ng/mL) and IFN-γ (5 ng/mL), and treated or not with different concentrations of the evaluated ferrocenyl-N-acyl hydrazones. The cells were incubated for 4 or 24 h at 37 °C and 5% CO2. Cell-free supernatants were collected after 4 h (for TNFα measurement) and 24 h (for IL-1β, TNFα, and nitrite quantifications), and kept at −80 °C until use.
(§2) The dosage of cytokines IFN-γ, IL-1β, IL-2, IL-4, and TNFα was performed from the supernatant of peritoneal macrophages or splenocytes were determined by enzyme-linked immunosorbent assay (ELISA), using DuoSet kits from R&D Systems, according to the manufacturer’s instructions. Nitric oxide production was estimated in macrophage culture supernatants harvested at 24 h using the Griess method for nitrite quantification.

J774 macrophages = experiment: Cytotoxicity to J774 macrophages (Alamar Blue); type: cell-based; settings: 72 h, read-out: CC50 (µM) JJ74
Method: J774 macrophages were seeded into 96-well plates at a cell density of 1 × 10^4 cells/well in a DMEM medium supplemented with 10% fetal bovine serum (FBS; GIBCO) and 50 µg/mL of gentamicin (Life Technologies, Carlsbad, CA, USA) and incubated for 24 h at 37 °C and 5% CO2. After that time, each compound was added in six concentrations (50–1.56 µM), in triplicate, and incubated for 72 h. At the end of treatment, 20 µL/well of Alamar Blue (Invitrogen) was added to the plates for 4 h. […]
As a positive control, gentian violet was used at concentrations ranging from 0.04 to 10 µM. CC50 values were calculated using data from three independent experiments.
To determine the cytotoxicity concentration of 50% of J774 macrophages (CC50), we used non-linear regression. One-way analysis of variance and Newman–Keuls multiple comparison tests were employed by using Graph Pad Prism version 8.0.1 (Graph Pad Software; San Diego, CA, USA). Differences were considered significant when the values of p were < 0.05. The data are representative of at least two or three experiments.

TNFα = TNFα production by peritoneal macrophages stimulated with LPS + IFN-γ (ELISA); type: cell-based, BALB/c mice
Method: as §1, §2

IL-4 = IL-4 production by splenocytes stimulated with concanavalin A (ELISA); type: cell-based, BALB/c mice; settings: Con A 5 µg/mL, 24 h
Method: (§3) BALB/c splenocyte suspensions were prepared in a DMEM medium supplemented with FBS and gentamicin. Splenocytes (5 × 10^6 cells/well) were plated in 24-well plates, in triplicate, and stimulated or not with concanavalin A (Con A; 5 µg/mL, Sigma-Aldrich). To evaluate lymphocyte function, splenocytes were activated in the absence or presence of various concentrations of SintMed149 and SintMed150 (10, 20, and 40 µM). After 24 h of treatment, cell-free supernatants were collected and kept at −80 °C until use.
as §2

nitrite production = experiment: Nitrite production by activated peritoneal macrophages (Griess); type: cell-based, BALB/c mice; settings: LPS + IFN-γ
Method: as §1, §2

IL-1β = IL-1β production by peritoneal macrophages stimulated with LPS + IFN-γ (ELISA); type: cell-based, BALB/c mice
Method: as §1, §2

peritoneal macrophages = experiment: Cytotoxicity to peritoneal macrophages activated with LPS + IFNγ (Alamar Blue); type: cell-based, BALB/c mice
Method: The second set of experiments was performed using peritoneal macrophages activated with LPS (500 ng/mL, Sigma-Aldrich) and IFNγ (5 ng/mL; Sigma-Aldrich).
Peritoneal exudate macrophages were obtained by washing, with a cold DMEM medium, the peritoneal cavity of BALB/c mice 4–5 days after injection of 3% thioglycolate (Sigma-Aldrich) in saline (1.5 mL per mouse). Cells were seeded into 96-well plates at a cell density of 1 × 10^5 cells/well in a DMEM medium supplemented with 10% FBS and 50 µg/mL of gentamicin and incubated for 24 h at 37 °C and 5% CO2. […] At the end of treatment, 20 µL/well of Alamar Blue (Invitrogen) were added to the plates for 10 h. Colorimetric readings were performed at 570 and 600 nm using a SpectraMax 190 Microplate Reader (Molecular Devices, Sunnyvale, CA, USA).

IL-2 = IL-2 production by splenocytes stimulated with concanavalin A (ELISA); type: cell-based, BALB/c mice; settings: Con A 5 µg/mL, 24 h
Method: as §3, §2

IFN-γ = IFN-γ production by splenocytes stimulated with concanavalin A (ELISA); type: cell-based, BALB/c mice; settings: 10 µM; Con A 5 µg/mL; 24 h
Method: as §3, §2

[1] = test system: carrageenan-induced acute peritonitis; experiment: Carrageenan-induced acute peritonitis (neutrophil migration); type: in vivo, BALB/c mice; settings: 25 mg/kg; compared to vehicle
Method: Next, animals were challenged with a 250 μL injection of carrageenan (1 mg/mL; intraperitoneal route). After 4 h, animals were euthanized and peritoneal exudates were harvested by peritoneal lavage using 2.5 mL of saline solution. Cells were centrifuged at 400× g for 10 min, at 4 °C. The pellet was resuspended in saline (1 mL). Total leukocytes in the peritoneal fluid were determined in a Neubauer chamber after dilution in Trypan blue stain. Differential counting of neutrophils was carried out in rapid panotype-stained cytospin preparations. A differential count of 300 cells was made in a blinded fashion and according to standard morphologic criteria.

[2] = test system: LPS-induced endotoxic shock; experiment: LPS-induced endotoxin shock (survival); type: in vivo, BALB/c mice; settings: 25 mg/kg, lethal LPS, monitored 4 days
Method: Groups of five male BALB/c mice (4 weeks of age) were used for the LPS lethality assays. Mice were treated with different doses of SintMed150 (50 or 100 mg/kg), dexamethasone (25 mg/kg), or vehicle (solution containing 30% sorbitol, 10% Tween 80, and 60% saline), by intraperitoneal (i.p.) route. Ninety minutes later, animals were challenged with 600 µg of LPS (from serotype 0111:B4 Escherichia coli, Sigma-Aldrich) in saline, by i.p. route. The survival rate was then monitored daily during 4 days.

SMILES	Inhibition of NO (%) Production at 40 μM (nitric oxide production)	CC50 (J774 macrophages)	further results
O=C(N/N=C/[c-]1cccc1)c1cc(O)c(O)c(O)c1.[Fe+2].c1cc[cH-]c1 [SintMed151, (E)-N′-(Ferrocenylmethylidene)-3,4,5-trihydroxybenzohydrazide]	25.2 (±2.1) %	> 50 µM	–
Cc1ccccc1C(=O)N/N=C/[c-]1cccc1.[Fe+2].c1cc[cH-]c1 [SintMed148, (E)-N′-(Ferrocenylmethylidene)-2-methylbenzohydrazide]	56.6 (±2.1) %	> 50 µM	–
N#Cc1ccc(C(=O)N/N=C/[c-]2cccc2)cc1.[Fe+2].c1cc[cH-]c1 [SintMed144, (E)-N′-(Ferrocenylmethylidene)-4-cyanobenzohydrazide]	55.2 (±0.6) %	> 50 µM	–
COc1cc(C(=O)N/N=C/[c-]2cccc2)cc(OC)c1OC.[Fe+2].c1cc[cH-]c1 [SintMed152, (E)-N′-(Ferrocenylmethylidene)-3,4,5-trimethoxybenzohydrazide]	55.5 (±1.7) %	> 50 µM	–
COc1ccc(C(=O)N/N=C/[c-]2cccc2)c(OC)c1.[Fe+2].c1cc[cH-]c1 [SintMed156, (E)-N′-(Ferrocenylmethylidene)-2,4-dimethoxybenzohydrazide]	46.7 (±3.0) %	> 50 µM	–
COc1cc(C(=O)N/N=C/[c-]2cccc2)cc(OC)c1OC.[Fe+2].c1cc[cH-]c1 [SintMed153, (E)-N′-(Ferrocenylmethylidene)-3,4,5-trimethoxybenzohydrazide]	43.7 (±3.3) %	> 50 µM	–
O=C(N/N=C/[c-]1cccc1)c1ccco1.[Fe+2].c1cc[cH-]c1 [SintMed143, (E)-N′-(Ferrocenylmethylidene)furan-2-ylcarbohydrazide]	49.2 (±1.9) %	> 50 µM	–
O=C(N/N=C/[c-]1cccc1)c1ccccc1Br.[Fe+2].c1cc[cH-]c1 [SintMed149, (E)-N′-(Ferrocenylmethylidene)-2-bromobenzohydrazide]	71.7 (±3.6) %	> 50 µM	TNF production (TNFα; 10, 20 and 40 µM, 4 h, p < 0.05): inhibitory effect; IL-4 levels (IL-4; 10, 20, 40 µM): did not significantly reduce; Nitrite production (nitrite production; 10, 20 and 40 µM, p < 0.05): inhibited, in a concentration-dependent manner; IL-1β production (IL-1β; 10, 20 and 40 µM, 24 h, p < 0.05): inhibitory effect; Cytotoxicity (cell viability) in peritoneal macrophages (peritoneal macrophages; all concentrations tested (10, 20, 40 µM)): not cytotoxic; IL-2 levels (IL-2; 10, 20, 40 µM): significant and concentration-dependent reduction
O=C(N/N=C/[c-]1cccc1)c1cccc(Cl)c1.[Fe+2].c1cc[cH-]c1 [SintMed154, (E)-N′-(Ferrocenylmethylidene)-3-chlorobenzohydrazide]	45.2 (±2.1) %	> 50 µM	–
C[C@@H]1C[C@H]2[C@@H]3CCC4=CC(=O)C=C[C@]4(C)[C@@]3(F)[C@@H](O)C[C@]2(C)[C@@]1(O)C(=O)CO [Dexamethasone, reference compound]	–	–	TNF production (TNFα; 10 µM): promoted the reduction; IL-4 levels (IL-4; 10 µM): significantly reduced; IFN-γ levels (IFN-γ): significantly reduced; Nitrite production (nitrite production; 10 µM): promoted the reduction; Reduction in neutrophil migration [1]: 55%; IL-1β production (IL-1β; 10 µM): promoted the reduction; Cytotoxicity (cell viability) in peritoneal macrophages (peritoneal macrophages; 40 µM): not cytotoxic; Survival rate [2]: 83.3%; inhibition at 40 µM (nitric oxide production; Mus musculus, J774, 24 h incubation with compounds and LPS plus IFN-γ, read-out: Inhibition of NO (%) Production at 40 μM): 64.9%; IL-2 levels (IL-2; 10 µM): significantly reduced
CC(C)(C)c1cc(C(=O)N/N=C/[c-]2cccc2)cc(C(C)(C)C)c1O.[Fe+2].c1cc[cH-]c1 [SintMed146, (E)-N′-(Ferrocenylmethylidene)-3,5-tert-butyl-4-hydroxybenzohydrazide]	14.4 (±2.2) %	> 50 µM	–
O=C(N/N=C/[c-]1cccc1)c1cccc2ccccc12.[Fe+2].c1cc[cH-]c1 [SintMed155, (E)-N′-(Ferrocenylmethylidene)-1-naphtylcarbohydrazide]	35.6 (±0.7) %	> 50 µM	–
O=C(N/N=C/[c-]1cccc1)c1ccccc1.[Fe+2].c1cc[cH-]c1 [SintMed141, (E)-N′-(Ferrocenylmethylidene)benzohydrazide]	19.7 (±3.0) %	> 50 µM	–
O=C(N/N=C/[c-]1cccc1)c1ccc2ccccc2n1.[Fe+2].c1cc[cH-]c1 [SintMed145, (E)-N′-(Ferrocenylmethylidene)quinolin-2-ylcarbohydrazide]	49.6 (±2.6) %	> 50 µM	–
O=C(N/N=C/[c-]1cccc1)c1ccc(C(F)(F)F)cc1.[Fe+2].c1cc[cH-]c1 [SintMed147, (E)-N′-(Ferrocenylmethylidene)-4-(trifluoromethyl)benzohydrazide]	59.9 (±0.3) %	> 50 µM	–
O=C(N/N=C/[c-]1cccc1)c1ccccc1Cl.[Fe+2].c1cc[cH-]c1 [SintMed142, (E)-N′-(Ferrocenylmethylidene)-2-chlorobenzohydrazide]	49.3 (±0.8) %	> 50 µM	–
